In ChEMBL document CHEMBL4011618, “Discovery of Potent, Selective Stem Cell Factor Receptor/Platelet Derived Growth Factor Receptor Alpha (c-KIT/PDGFRα) Dual Inhibitor for the Treatment of Imatinib-Resistant Gastrointestinal Stromal Tumors (GISTs)” (J Med Chem, 2017):

Key:
[1] = Cmax in Sprague-Dawley rat at 25 mg/kg, ip up to 24 hrs post dose by LC/MS/MS analysis; format: ADME, organism-based; set-up: dose 25 mg/kg, route intraperitoneal; conditions: in vivo
[2] = MRT (0 to t) in Sprague-Dawley rat at 2 mg/kg, iv up to 24 hrs post dose by LC/MS/MS analysis; format: ADME, organism-based; conditions: in vivo
[3] = AUC (0 to infinity) in Sprague-Dawley rat at 25 mg/kg, ip up to 24 hrs post dose by LC/MS/MS analysis; format: ADME, organism-based; set-up: dose 25 mg/kg, time infinity, route intraperitoneal; conditions: in vivo
[4] = molecular target: Tyrosine-protein kinase ABL2 (Homo sapiens) (UniProt P42684); assay: Inhibition of human wild type ABL2 (248 to 542 residues) expressed in bacterial expression system assessed as activity remaining at 1 uM by KINOMEscan assay relative to control
[5] = AUC (0 to t) in Sprague-Dawley rat at 100 mg/kg, ip up to 24 hrs post dose by LC/MS/MS analysis; format: ADME, organism-based; set-up: dose 100 mg/kg, time < 24 hr, route intraperitoneal; conditions: in vivo
[6] = molecular target: Platelet-derived growth factor receptor alpha (Homo sapiens, UniProt P16234); assay: Inhibition of PDGFRalpha (unknown origin) using FAM-labeled peptide as substrate preincubated for 10 mins followed by substrate addition in presence of ATP by mobility shift assay
[7] = Volume of distribution at steady state in Sprague-Dawley rat at 2 mg/kg, iv up to 24 hrs post dose by LC/MS/MS analysis; format: ADME, organism-based; conditions: in vivo, read-out: Vdss
[8] = system: Mast/stem cell growth factor receptor Kit (Homo sapiens), P10721 [V559D,T670I]
KU812 cell line = assay: Antiproliferative activity against human KU812 cells assessed as cell growth inhibition after 72 hrs by cell titer-glo assay; format: functional; conditions: KU812, 72 h
[9] = molecular target: Proto-oncogene tyrosine-protein kinase receptor Ret (Homo sapiens, UniProt P07949); assay: Inhibition of human GST-tagged RET (658 to 1114 residues) expressed in baculovirus by ELISA
[10] = system: Mast/stem cell growth factor receptor Kit (Homo sapiens), P10721 [V559D]
Mus musculus [11] = assay: Toxicity in nu/nu mouse xenografted with human GISTT1 cells assessed as mortality at 25 to 100 mg/kg, ip administered daily for 28 days measured during compound dosing; format: organism-based; conditions: in vivo, 672 h
GISTT1 [12] = assay: Antitumor activity against human GISTT1 cells xenografted in nu/nu mouse assessed as tumor growth inhibition at 100 mg/kg, ip administered daily for 28 days relative to control; format: functional; conditions: 672 h, read-out: TGI
K562 = assay: Antiproliferative activity against human K562 cells assessed as cell growth inhibition after 72 hrs by cell titer-glo assay; format: functional; conditions: K562, 72 h
[13] = Half life in Sprague-Dawley rat at 2 mg/kg, iv up to 24 hrs post dose by LC/MS/MS analysis; format: ADME, organism-based; conditions: in vivo
[14] = system: Mast/stem cell growth factor receptor Kit (Homo sapiens), P10721 [D816H]
Description: Inhibition of TEL-fused cKIT D816H mutant (unknown origin) expressed in mouse BAF3 cells assessed as cell growth inhibition after 72 hrs by cell titer-glo assay

[15] = AUC (0 to infinity) in Sprague-Dawley rat at 2 mg/kg, iv up to 24 hrs post dose by LC/MS/MS analysis; format: ADME, organism-based; set-up: dose 2 mg/kg, route intravenous, time infinity; conditions: in vivo
BaF3 [16] = assay: Antitumor activity against mouse BAF3 cells harboring TEL-cKIT-T670I mutant allografted in nu/nu mouse assessed as tumor growth inhibition at 25 mg/kg, ip administered daily for 11 days relative to control; format: functional; conditions: 264 h, read-out: TGI
Mus musculus [17] = assay: Toxicity in nu/nu mouse allografted with mouse BAF3 cells harboring TEL-cKIT-T670I mutant assessed as change in body weight at 25 to 100 mg/kg, ip administered daily for 11 days relative to control; format: organism-based; conditions: in vivo, 264 h
[18] = molecular target: Macrophage colony-stimulating factor 1 receptor (Homo sapiens, UniProt P07333); assay: Inhibition of human full length His-tagged CSF1R expressed in baculovirus by Z'Lyte assay
[19] = molecular target: Voltage-gated inwardly rectifying potassium channel KCNH2 (Homo sapiens, UniProt Q12809); assay: Inhibition of human ERG expressed in CHO cells by whole cell patch clamp assay; format: cell-based
[20] = system: Mast/stem cell growth factor receptor Kit (Homo sapiens), P10721 [D816V]
Description: Inhibition of TEL-fused cKIT D816V mutant (unknown origin) expressed in mouse BAF3 cells assessed as cell growth inhibition after 72 hrs by cell titer-glo assay

BaF3 [21] = assay: Antitumor activity against mouse BAF3 cells harboring TEL-cKIT-T670I mutant allografted in nu/nu mouse assessed as tumor growth inhibition at 100 mg/kg, ip administered daily for 11 days relative to control; format: functional; conditions: 264 h, read-out: TGI
[22] = system: Platelet-derived growth factor receptor alpha (Homo sapiens), P16234 [T674I]
Description: Inhibition of TEL-fused PDGFRalpha T674I mutant (unknown origin) expressed in mouse BAF3 cells assessed as cell growth inhibition after 72 hrs by cell titer-glo assay

[23] = molecular target: Vascular endothelial growth factor receptor 3 (Homo sapiens, UniProt P35916); assay: Inhibition of human GST-tagged FLT4 (800 to 1297 residues) expressed in baculovirus by ELISA
[24] = AUC (0 to t) in Sprague-Dawley rat at 2 mg/kg, iv up to 24 hrs post dose by LC/MS/MS analysis; format: ADME, organism-based; set-up: dose 2 mg/kg, time < 24 hr, route intravenous; conditions: in vivo
[25] = MRT (0 to t) in Sprague-Dawley rat at 25 mg/kg, ip up to 24 hrs post dose by LC/MS/MS analysis; format: ADME, organism-based; conditions: in vivo
[26] = system: Mast/stem cell growth factor receptor Kit (Homo sapiens), P10721 [N822K]
Description: Inhibition of TEL-fused cKIT N822K mutant (unknown origin) expressed in mouse BAF3 cells assessed as cell growth inhibition after 72 hrs by cell titer-glo assay

[27] = Half life in Sprague-Dawley rat at 100 mg/kg, ip up to 24 hrs post dose by LC/MS/MS analysis; format: ADME, organism-based; conditions: in vivo
GISTT1 [28] = assay: Antiproliferative activity against human GISTT1 cells assessed as cell growth inhibition after 72 hrs by cell titer-glo assay; format: functional; conditions: GISTT1, 72 h
[29] = molecular target: Receptor-type tyrosine-protein kinase FLT3 (Homo sapiens, UniProt P36888); assay: Inhibition of human His-tagged FLT3 (564 to 958 residues) expressed in baculovirus by ELISA
[30] = Cmax in Sprague-Dawley rat at 2 mg/kg, iv up to 24 hrs post dose by LC/MS/MS analysis; format: ADME, organism-based; set-up: dose 2 mg/kg, route intravenous; conditions: in vivo
[31] = Tmax in Sprague-Dawley rat at 25 mg/kg, ip up to 24 hrs post dose by LC/MS/MS analysis; format: ADME, organism-based; conditions: in vivo
[32] = Half life in Sprague-Dawley rat at 25 mg/kg, ip up to 24 hrs post dose by LC/MS/MS analysis; format: ADME, organism-based; conditions: in vivo
[33] = Antiproliferative activity against CHL cells assessed as cell growth inhibition after 72 hrs by cell titer-glo assay; format: cell-based, Cricetulus griseus; conditions: chinese hamster
[34] = system: Mast/stem cell growth factor receptor Kit (Homo sapiens), P10721 [T670I]
Description: Inhibition of TEL-fused cKIT T670I mutant (unknown origin) expressed in mouse BAF3 cells assessed as cell growth inhibition after 72 hrs by cell titer-glo assay

[35] = Tmax in Sprague-Dawley rat at 2 mg/kg, iv up to 24 hrs post dose by LC/MS/MS analysis; format: ADME, organism-based; conditions: in vivo
[36] = AUC (0 to t) in Sprague-Dawley rat at 25 mg/kg, ip up to 24 hrs post dose by LC/MS/MS analysis; format: ADME, organism-based; set-up: dose 25 mg/kg, time < 24 hr, route intraperitoneal; conditions: in vivo

Chain of Mast/stem cell growth factor receptor Kit (Homo sapiens), P10721 [N822K] (P10721 whole entry N822K): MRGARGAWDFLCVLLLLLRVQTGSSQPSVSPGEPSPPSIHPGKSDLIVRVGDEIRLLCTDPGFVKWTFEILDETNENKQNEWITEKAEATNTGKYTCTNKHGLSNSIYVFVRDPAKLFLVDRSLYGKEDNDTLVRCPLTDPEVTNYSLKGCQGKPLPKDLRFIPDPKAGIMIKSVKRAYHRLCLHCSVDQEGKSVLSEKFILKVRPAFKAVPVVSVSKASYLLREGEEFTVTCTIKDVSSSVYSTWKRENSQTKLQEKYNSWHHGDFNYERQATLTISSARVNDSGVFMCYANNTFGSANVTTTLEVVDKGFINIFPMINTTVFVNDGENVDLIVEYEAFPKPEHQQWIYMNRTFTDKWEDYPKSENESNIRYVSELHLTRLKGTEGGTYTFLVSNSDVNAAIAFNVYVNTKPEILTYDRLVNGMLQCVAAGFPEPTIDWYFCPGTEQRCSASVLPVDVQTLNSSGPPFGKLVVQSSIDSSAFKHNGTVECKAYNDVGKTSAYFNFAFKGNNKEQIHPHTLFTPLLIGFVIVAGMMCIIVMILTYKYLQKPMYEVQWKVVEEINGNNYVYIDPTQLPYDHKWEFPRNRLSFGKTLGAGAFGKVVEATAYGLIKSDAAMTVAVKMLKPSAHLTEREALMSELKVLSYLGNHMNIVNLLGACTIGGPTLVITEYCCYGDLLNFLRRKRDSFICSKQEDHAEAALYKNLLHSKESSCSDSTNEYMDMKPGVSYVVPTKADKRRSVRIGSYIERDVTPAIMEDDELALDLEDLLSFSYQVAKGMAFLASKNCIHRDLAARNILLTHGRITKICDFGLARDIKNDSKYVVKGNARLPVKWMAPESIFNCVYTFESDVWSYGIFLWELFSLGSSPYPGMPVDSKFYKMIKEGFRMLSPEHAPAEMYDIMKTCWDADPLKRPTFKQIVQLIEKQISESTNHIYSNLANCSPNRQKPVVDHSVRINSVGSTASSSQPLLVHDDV
Chain of Voltage-gated inwardly rectifying potassium channel KCNH2 (Q12809 whole entry): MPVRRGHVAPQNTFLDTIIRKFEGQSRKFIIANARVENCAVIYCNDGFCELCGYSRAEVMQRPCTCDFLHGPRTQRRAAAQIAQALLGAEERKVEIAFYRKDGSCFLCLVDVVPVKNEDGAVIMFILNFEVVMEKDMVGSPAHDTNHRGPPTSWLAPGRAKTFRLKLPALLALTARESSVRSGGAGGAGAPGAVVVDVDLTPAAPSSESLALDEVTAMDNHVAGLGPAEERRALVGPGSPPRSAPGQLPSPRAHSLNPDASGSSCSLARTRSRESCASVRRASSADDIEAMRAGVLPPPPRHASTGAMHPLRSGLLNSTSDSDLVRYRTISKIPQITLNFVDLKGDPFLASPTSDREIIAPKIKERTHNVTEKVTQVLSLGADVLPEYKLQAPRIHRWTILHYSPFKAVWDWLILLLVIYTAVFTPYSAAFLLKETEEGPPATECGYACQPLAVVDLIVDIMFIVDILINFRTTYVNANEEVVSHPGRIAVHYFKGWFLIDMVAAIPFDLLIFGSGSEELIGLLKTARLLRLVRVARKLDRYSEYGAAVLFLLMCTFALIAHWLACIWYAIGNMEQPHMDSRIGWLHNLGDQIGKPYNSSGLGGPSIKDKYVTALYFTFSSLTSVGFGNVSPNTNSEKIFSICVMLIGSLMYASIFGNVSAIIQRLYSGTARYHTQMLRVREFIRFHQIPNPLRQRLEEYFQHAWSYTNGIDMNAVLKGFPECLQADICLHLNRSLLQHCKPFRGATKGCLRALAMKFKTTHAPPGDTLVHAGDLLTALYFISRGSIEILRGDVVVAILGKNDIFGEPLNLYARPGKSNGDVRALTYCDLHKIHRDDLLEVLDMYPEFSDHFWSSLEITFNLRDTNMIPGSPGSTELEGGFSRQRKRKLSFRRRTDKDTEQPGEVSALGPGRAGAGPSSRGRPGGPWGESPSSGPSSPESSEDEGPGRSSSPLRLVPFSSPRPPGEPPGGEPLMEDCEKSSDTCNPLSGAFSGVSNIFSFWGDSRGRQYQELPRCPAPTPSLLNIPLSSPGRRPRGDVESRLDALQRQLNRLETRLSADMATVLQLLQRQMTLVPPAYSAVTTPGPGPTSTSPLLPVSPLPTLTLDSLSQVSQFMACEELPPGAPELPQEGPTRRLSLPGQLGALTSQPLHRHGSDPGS
Chain of Vascular endothelial growth factor receptor 3 (P35916 whole entry, the tested form may be a part): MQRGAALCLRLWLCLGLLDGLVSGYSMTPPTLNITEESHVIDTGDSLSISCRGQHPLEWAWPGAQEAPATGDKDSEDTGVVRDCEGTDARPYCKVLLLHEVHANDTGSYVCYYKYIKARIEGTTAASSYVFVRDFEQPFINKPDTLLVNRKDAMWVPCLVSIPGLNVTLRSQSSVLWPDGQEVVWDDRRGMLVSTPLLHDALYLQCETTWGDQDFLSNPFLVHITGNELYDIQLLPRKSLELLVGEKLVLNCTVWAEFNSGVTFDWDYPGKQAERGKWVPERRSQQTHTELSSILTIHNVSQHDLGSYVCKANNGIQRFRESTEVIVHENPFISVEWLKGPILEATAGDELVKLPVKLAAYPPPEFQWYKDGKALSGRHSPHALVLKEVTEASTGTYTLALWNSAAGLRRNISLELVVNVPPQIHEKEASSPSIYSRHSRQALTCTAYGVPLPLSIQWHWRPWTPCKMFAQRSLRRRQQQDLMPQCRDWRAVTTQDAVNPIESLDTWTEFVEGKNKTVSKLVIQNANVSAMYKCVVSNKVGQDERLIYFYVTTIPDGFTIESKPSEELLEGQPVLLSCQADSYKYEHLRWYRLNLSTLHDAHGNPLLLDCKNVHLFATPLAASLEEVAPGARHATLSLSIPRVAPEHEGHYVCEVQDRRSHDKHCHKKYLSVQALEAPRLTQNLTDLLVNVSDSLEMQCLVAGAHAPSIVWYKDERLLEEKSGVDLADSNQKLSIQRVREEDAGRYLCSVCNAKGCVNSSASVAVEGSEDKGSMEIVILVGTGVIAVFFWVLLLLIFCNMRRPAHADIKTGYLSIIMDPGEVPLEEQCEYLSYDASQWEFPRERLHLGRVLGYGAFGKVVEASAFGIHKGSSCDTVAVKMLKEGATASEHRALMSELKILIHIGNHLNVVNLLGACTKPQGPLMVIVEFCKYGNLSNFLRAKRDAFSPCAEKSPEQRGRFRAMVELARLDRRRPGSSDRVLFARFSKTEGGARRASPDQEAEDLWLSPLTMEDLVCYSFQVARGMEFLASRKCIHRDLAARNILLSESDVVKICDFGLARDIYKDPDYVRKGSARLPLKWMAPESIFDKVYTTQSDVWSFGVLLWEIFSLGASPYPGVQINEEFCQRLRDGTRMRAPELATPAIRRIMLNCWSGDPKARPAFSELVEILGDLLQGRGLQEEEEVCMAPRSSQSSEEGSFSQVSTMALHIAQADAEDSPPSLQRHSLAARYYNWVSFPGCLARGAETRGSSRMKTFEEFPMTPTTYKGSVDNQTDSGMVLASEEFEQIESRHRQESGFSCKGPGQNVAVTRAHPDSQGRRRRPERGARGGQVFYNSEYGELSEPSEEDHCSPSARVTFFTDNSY
Chain of Platelet-derived growth factor receptor alpha (Homo sapiens), P16234 [T674I] (P16234 whole entry T674I, the tested form may be a part): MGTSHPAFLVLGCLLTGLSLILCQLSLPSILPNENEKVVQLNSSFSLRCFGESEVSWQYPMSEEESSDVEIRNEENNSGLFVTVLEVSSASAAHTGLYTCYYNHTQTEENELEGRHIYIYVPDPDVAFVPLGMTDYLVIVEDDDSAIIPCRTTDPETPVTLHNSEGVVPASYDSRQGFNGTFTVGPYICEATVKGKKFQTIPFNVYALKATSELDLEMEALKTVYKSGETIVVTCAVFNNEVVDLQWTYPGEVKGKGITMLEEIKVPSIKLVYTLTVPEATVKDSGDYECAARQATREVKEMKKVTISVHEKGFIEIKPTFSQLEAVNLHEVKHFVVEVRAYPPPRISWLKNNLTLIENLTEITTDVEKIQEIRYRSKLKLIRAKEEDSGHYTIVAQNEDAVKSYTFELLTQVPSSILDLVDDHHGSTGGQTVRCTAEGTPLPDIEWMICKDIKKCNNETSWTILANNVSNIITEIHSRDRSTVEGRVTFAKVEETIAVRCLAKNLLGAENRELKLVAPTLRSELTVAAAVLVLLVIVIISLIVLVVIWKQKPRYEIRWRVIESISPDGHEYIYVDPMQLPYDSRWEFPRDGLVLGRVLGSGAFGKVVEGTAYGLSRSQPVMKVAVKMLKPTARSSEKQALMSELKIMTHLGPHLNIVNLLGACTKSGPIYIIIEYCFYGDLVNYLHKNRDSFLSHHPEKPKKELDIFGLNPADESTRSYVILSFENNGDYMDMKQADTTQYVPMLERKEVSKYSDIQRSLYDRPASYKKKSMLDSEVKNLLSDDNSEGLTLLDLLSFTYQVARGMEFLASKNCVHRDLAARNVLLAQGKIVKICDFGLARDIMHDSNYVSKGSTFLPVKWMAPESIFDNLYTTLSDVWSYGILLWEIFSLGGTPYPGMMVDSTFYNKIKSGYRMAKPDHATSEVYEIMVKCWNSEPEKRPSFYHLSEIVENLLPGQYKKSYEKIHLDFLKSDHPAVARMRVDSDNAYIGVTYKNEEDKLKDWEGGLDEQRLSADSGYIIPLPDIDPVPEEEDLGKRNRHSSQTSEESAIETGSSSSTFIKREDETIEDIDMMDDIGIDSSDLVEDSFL

Cc1cc(NC(=O)Nc2ccc(-c3ccnc4[nH]nc(C)c34)cc2)ccc1N1CCOCC1 gave a Cmax [1] of 117 ng/mL, an MRT last at 24 h [2] of 1.13 h and an AUC(0-inf) [3] of 713 ng·h/mL. It also gave an Activity [4] of over 35%, an AUC(0-t) at 24 h [5] of 4250 ng·h/mL and an IC50 [6] of 7.2 nM. For the same compound, the Vd [7] was 0.97 L/kg, the GI50 [8] was 36.4 nM and the GI50 (KU812 cell line) was over 10000 nM. For the same compound, the IC50 [9] was over 1000 nM, the GI50 [10] was 96.5 nM and the Activity (Mus musculus [11]) was “Non-Toxic”. The inhibition in vivo at 100 mg/kg (GISTT1 [12]) was 81.5%, the GI50 (K562) was over 10000 nM and the half-life [13] was 0.69 h. For the same compound, the GI50 [14] was 134 nM, the AUC(0-inf) [15] was 2250 ng·h/mL and the inhibition in vivo at 25 mg/kg (BaF3 [16]) was 16.8%. For the same compound, the Activity (Mus musculus [17]) was “Non-Toxic”, the IC50 [18] was 160 nM and the IC50 [19] was over 40000 nM. It also gave a GI50 [20] of over 10000 nM, an inhibition in vivo at 100 mg/kg (BaF3 [21]) of 41.9% and a GI50 [22] of 135 nM. It also gave an IC50 [23] of 72 nM, an AUC(0-t) at 24 h [24] of 2240 ng·h/mL and an MRT last at 24 h [25] of 5.67 h. For the same compound, the GI50 [26] was 11.1 nM, the half-life [27] was 11 h and the GI50 (GISTT1 [28]) was under 3 nM. It also gave an IC50 [29] of 2 nM, a Cmax [30] of 1890 ng/mL and a Tmax [31] of 4 h. It also gave a half-life [32] of 5.09 h, a GI50 at 72 h [33] of 7040 nM and a GI50 [34] of 39.2 nM. The Tmax [35] was 4.98 min and the AUC(0-t) at 24 h [36] was 691 ng·h/mL.
